pIC50: −log10 of the molar value.
What was measured:
[1] = system: thrombocyte aggregation in platelet-rich plasma; test: Determination of effect on platelet aggregation by the method of Born and Cross (collagen-induced thrombocyte aggregation); format: cell-based; details: 10 min, platelet-rich plasma of healthy human donors, 10 min incubation at 37° C., read-out: ED50 (dose leading to a 50% inhibition of aggregation compared with the control group)
Procedure: 1. Determination of effect on platelet aggregation by the method of Born and Cross, J. Physiol. 170, 397 (1964):
The thrombocyte aggregation was measured in the platelet-rich plasma of healthy human donors. The course of change of the optical density of the platelet suspension was measured and recorded photometrically after the addition of commercial collagen containing 1 mg of collagen fibrils per ml. From the angle of inclination of the density curve, the rate of aggregation was estimated (Vmax). The optical density (O.D.) was taken as the point on the curve where the most light was transmitted.
As small doses of collagen as possible were chosen, but sufficient to give irreversible aggregation. To provoke maximum aggregation, about 0.01 ml of the collagen solution was added to 1 ml of platelet-rich plasma.
The test compounds were incubated at 37° C. for 10 minutes with the plasma before aggregation was provoked. The compounds were dissolved with a small quantity of hydrochloric acid or dimethyl formamide, and the solution was diluted to the desired final concentration with distilled water.
The dose leading to a 50% inhibition of aggregation compared with the control group (E D50) was determined.

[2] = Acute toxicity in white mice after oral application of a single dose; format: in vivo; details: mouse, in vivo, observation time 14 days
Procedure: (§1) The acute toxicity of the compounds was determined in white mice (observation time: 14 days) after oral application of a single dose: […]

[3] = system: white mice; test: as above; format: in vivo; details: observation time 14 days, at the dose given in the same line
Procedure: as §1

SMILES	pIC50 [1]	LD50 at 336 h [2] [mg/kg]	animals died (mortality in acute toxicity test) [3]
Nc1n[nH]c2nc(N3CCOCC3)cc(-c3ccccc3)c12 [A, 3-Amino-6-morpholino-4-phenyl-1H-pyrazolo[3,4-b]pyridine]	6.00	> 250	0 out of 10
Nc1n[nH]c2nc(N3CCSCC3)cc(-c3ccccc3)c12 [B, 3-Amino-4-phenyl-6-thiomorpholino-1H-pyrazolo[3,4-b]pyridine]	7.40	> 250	0 out of 10
Nc1n[nH]c2nc(N3CCCCC3)cc(-c3ccccc3)c12 [C, 3-Amino-4-phenyl-6-piperidino-1H-pyrazolo[3,4-b]pyridine]	6.40	> 250	0 out of 10
Nc1n[nH]c2nc(N3CCCCCC3)cc(-c3ccccc3)c12 [Compound E, 3-Amino-6-hexamethyleneimino-4-phenyl-1H-pyrazolo[3,4-b]pyridine]	7.40	> 5000	3 out of 10
CC1CCCN(c2cc(-c3ccccc3)c3c(N)n[nH]c3n2)C1 (stereo not shown) [D, 3-Amino-6-(3-methyl-piperidino)-4-phenyl-1H-pyrazolo[3,4-b]pyridine]	6.52	> 250	0 out of 10
CCN(CC)c1cc(-c2ccccc2)c2c(N)n[nH]c2n1 [F, 3-Amino-6-diethylamino-4-phenyl-1H-pyrazolo[3,4-b]pyridine]	6.52	> 1500	0 out of 10
COc1ccc(-c2cc(N3CCCCC3)nc3[nH]nc(N)c23)cc1 [G, 3-Amino-4-(4'-methoxy-phenyl)-6-piperidino-1H-pyrazolo [3,4-b]pyridine]	6.00	> 1500	0 out of 10
Nc1n[nH]c2nc(N3CCCCCC3)cc(-c3ccc(F)cc3)c12 [H, 3-Amino-4-(4'-fluoro-phenyl)-6-hexamethyleneimino-1H-pyrazolo[3,4-b]pyridine]	6.52		
Nc1cc(-c2ccccc2)c2c(N)n[nH]c2n1 [I, 3,6-Diamino-4-phenyl-1H-pyrazolo[3,4-b]pyridine, reference compound]	4.00	> 1500	0 out of 10
